The record followed here is patent publication US11447525B2 (NIIGATA UNIVERSITY, priority 2018, dated 2022).

“Also recorded” adds a separate entry of the source. Non-standard residues stand in square brackets, D forms with d. Residues, ends and D or L forms follow the SMILES beside them. No end group written: not given here. *: point of attachment. 5FAM = O=C1OC2(c3ccc(O)cc3Oc3cc(O)ccc32)c2ccc(C(=O)*)cc21; NMeR = CN[C@@H](CCCNC(=N)N)C(=O)O

The nature of series [1]: human blood plasma having a concentration of 50% by mass. As to conditions: up to 120 minutes.
Series [2] relates to pancreatic cancer cells (BxPC3, PK-8, AsPC1). Kind of series: Accumulation of FLC-labeled peptides in cells (Test Example 8). The series is classed as cell-based, human. Particulars: 2 μM, 37° C., 2 hours. As to the method:
Tests were conducted to confirm the accumulation of various peptides into each of the cells shown below in Table 13. Further, the peptides shown below in Table 14 were used.
Each peptide was added to each of the cells shown in Table 13 in an amount sufficient to achieve a final concentration in the medium of 2 μM, and following cultivation of the cells at 37° C. for 2 hours, the sample was washed 3 times with a medium containing no peptide to remove any peptide within the medium. Subsequently, the incorporation of each of the peptides into each of the cells was evaluated visually using an inverted fluorescence microscope. Prior to the microscopic examination, the culture supernatant to which the peptide had been added was removed, and following washing three times with 1×PBS (−), a trypsin treatment was conducted to remove the adherent cells, and the resultant was immediately transferred into a new 96-well plate and once again suspended in fresh culture solution before the microscopic examination was performed. In FIG. 23, “pep(−)” indicates the control cells to which no peptide was administered, and “single PCPP11” indicates cells to which FLC (fluorescein)-PCPP11 had been added. Further, “mal” indicates a maleimide group, with the peptide and the FLC bonded together by forming a covalent bond between the thiol group (—SH) of a cysteine residue and a maleimide group introduced into the FLC.

A short description of series [3]: Degradation test by human blood plasma, MALDI-TOFMS analysis. The series is classed as in vitro ADME. Particulars: 50% by mass human blood plasma. The protocol: Specifically, a peptide composed of the amino acid sequence represented by SEQ ID NO: 1 (hereafter sometimes referred to as “PCPP11”) was added to human blood plasma having a concentration of 50% by mass, the mixture was sampled immediately after starting the degradation test (after 0 minutes), and then after 5 minutes, after 10 minutes, after 20 minutes, after 30 minutes, after 60 minutes and after 120 minutes, and the samples were analyzed by MALDI-TOFMS (Matrix Assisted Laser Desorption/Ionization-Time Of Flight Mass Spectrometry). In Table 2, “UK” is an abbreviation for “unknown”. Further, the No. shown for each peptide in Table 2 corresponds with the numerical value recorded on the peaks of the graphs shown in FIG. 1.
Each of the peptides described above was added to human blood plasma having a concentration of 50% by mass, the resulting mixture was sampled immediately after starting the degradation test (after 0 minutes), and then after 5 minutes, after 10 minutes, after 20 minutes, after 30 minutes, after 60 minutes and after 120 minutes, and the samples were analyzed by MALDI-TOFMS. The results are shown in FIGS. 2 to 6 and Tables 4 to 6 shown below. Furthermore, the data for the degradation test by human blood plasma using PCPP11 from Reference Example 1 and the degradation tests by human blood plasma using each of the above peptides are collated in FIG. 7 and Table 7. The SEQ ID NO listed for the FAM-labeled peptide represents the SEQ ID NO of the peptide portion. Further, the No. shown for each peptide in Tables 4 to 6 corresponds with the numerical value recorded on the peaks of the graphs shown in FIGS. 2 to 6. In each table, in those cases where the numerical values are shown separated into an upper row and a lower row, the upper row value indicates the proportion (%) of peak area for two or more peptides relative to the total peak area in the MALDI-TOFMS analysis. On the other hand, the lower row value indicates the proportion (%) of each peptide when the peak area for the two or more peptides is deemed to be 100%. Moreover, for example, for the peptide No. 9 shown in Table 4, the left-side “70.0%” indicates the proportion (%) of the peptide No. 9 when the total peak area for the peptides No. 9 to 11 is deemed to be 100%, whereas the right-side “65%” indicates the proportion (%) of the peptide No. 9 relative to the total peak area in the MALDI-TOFMS analysis. This system is also used in the following tables.

For series [4], the system named is human pancreatic cancer growth and progression mouse model (subcutaneous and intraperitoneal human pancreatic cancer cell-transplanted). Kind of series: Selective absorption into tissues of human pancreatic cancer growth and progression mouse model, fluorescence signal (Test Examples 3, 4, Reference Example 2). The series is classed as in vivo, Balb/c nu/nu mouse. As to conditions: 200 μg intravenously, 30 minutes after injection. The protocol:
Subsequently, 200 μg of each of the fluorescent labeled peptides prepared above in “1.” was injected intravenously into a human pancreatic cancer growth and progression mouse model (Balb/c nu/nu mouse, subcutaneous and intraperitoneal human pancreatic cancer cell-transplanted model). The pharmacokinetics of the peptide 30 minutes after the intravenous injection were then analyzed by tissue analysis of the freshly dissected specimen of the administered mouse, with the absorption quantified by detection of the fluorescence signal. […] In FIG. 9A, “sc tumor” is an abbreviation for “subcutaneous tumor”. In FIG. 9B, “abd tumor” is an abbreviation for “abdominal tumor”, indicating a tumor formed intraperitoneally. Further, “br” indicates the brain, “hr” indicates the heart, “kd” indicates the kidney, and “liv” indicates the liver. Furthermore, “liv. meta” is an abbreviation for “liver metastatic tumor”, and describes a tumor that has metastasized to the liver. Moreover, “panc” indicates the pancreas, and “sp” indicates the spleen. These same abbreviations are also used in subsequent figures. Furthermore, the term “untreated” in FIG. 9A indicates tissues resected from a mouse that was not administered with any fluorescent labeled peptide.
Specifically, first, either 27 μg or 200 μg of fluorescein was injected intravenously into a human pancreatic cancer growth and progression mouse model (Balb/c nu/nu mouse, subcutaneous and intraperitoneal human pancreatic cancer cell-transplanted model). The pharmacokinetics of the FLC 30 minutes after the intravenous injection were then analyzed by tissue analysis of the freshly dissected specimen of the administered mouse, with the absorption quantified by detection of the fluorescence signal.

Take “RRPTTWHKP-G-pkhwttprr (H-RRPTTWHKPG[dP][dK][dH][dW][dT][dT][dP][dR][dR]-OH; N-terminus and C-terminus assumed; SMILES C[C@H](O)[C@@H](NC(=O)[C@@H](Cc1c[nH]c2ccccc12)NC(=O)[C@@H](Cc1c[nH]cn1)NC(=O)[C@@H](CCCCN)NC(=O)[C@H]1CCCN1C(=O)CNC(=O)[C@@H]1CCCN1C(=O)[C@H](CCCCN)NC(=O)[C@H](Cc1c[nH]cn1)NC(=O)[C@H](Cc1c[nH]c2ccccc12)NC(=O)[C@@H](NC(=O)[C@@H](NC(=O)[C@@H]1CCCN1C(=O)[C@H](CCCNC(=N)N)NC(=O)[C@@H](N)CCCNC(=N)N)[C@@H](C)O)[C@@H](C)O)C(=O)N[C@@H](C(=O)N1CCC[C@@H]1C(=O)N[C@H](CCCNC(=N)N)C(=O)N[C@H](CCCNC(=N)N)C(=O)O)[C@H](C)O)”: the fragment found result in series [1] is “RPTTWHKP-G-pkhwttprr, Start; also recorded: TTWHKP-G-pkhwttprr, Start”. “RPTTWHKP-G-RRPTTWHKP-K(-[FLC])-RRPTTWHKP (RPTTWHKPGRRPTTWHKPK(fluorescein)RRPTTWHKP) [L(-R)L-Lys(-FLC)-L]”: in series [2], the “fluorescence compared with FLC-PCPP11” value is on record as “stronger fluorescence” and the “fluorescence detected in all of the pancreatic cancer cells” value (from here on “fluorescence detected in all”) was “particularly strong fluorescence”. As for “RRPTTWHKP-G-RRPTTWHKP (RRPTTWHKPGRRPTTWHKP)”, in series [1], the fragment found result was “TTWHKP-G-RRPTTWHKP, 60 min; also recorded: RPTTWHKP-G-RRPTTWHKP, 20 min”. Regarding “R-mR-PTTWHKP-G-pkhwttprr (H-R[NMeR]PTTWHKPG[dP][dK][dH][dW][dT][dT][dP][dR][dR]-OH; N-terminus and C-terminus assumed; SMILES C[C@H](O)[C@@H](NC(=O)[C@@H](Cc1c[nH]c2ccccc12)NC(=O)[C@@H](Cc1c[nH]cn1)NC(=O)[C@@H](CCCCN)NC(=O)[C@H]1CCCN1C(=O)CNC(=O)[C@@H]1CCCN1C(=O)[C@H](CCCCN)NC(=O)[C@H](Cc1c[nH]cn1)NC(=O)[C@H](Cc1c[nH]c2ccccc12)NC(=O)[C@@H](NC(=O)[C@@H](NC(=O)[C@@H]1CCCN1C(=O)[C@H](CCCNC(=N)N)N(C)C(=O)[C@@H](N)CCCNC(=N)N)[C@@H](C)O)[C@@H](C)O)C(=O)N[C@@H](C(=O)N1CCC[C@@H]1C(=O)N[C@H](CCCNC(=N)N)C(=O)N[C@H](CCCNC(=N)N)C(=O)O)[C@H](C)O)”, the not cleaved entry in series [1] is “no degradation products within 120 minutes; 100% at 120 min”. Turning to `C[C@H](O)[C@@H](NC(=O)[C@@H](Cc1c[nH]c2ccccc12)NC(=O)[C@@H](Cc1c[nH]cn1)NC(=O)[C@@H](CCCCN)NC(=O)[C@H]1CCCN1C(=O)CNC(=O)[C@@H]1CCCN1C(=O)[C@H](CCCCN)NC(=O)[C@H](Cc1c[nH]cn1)NC(=O)[C@H](Cc1c[nH]c2ccccc12)NC(=O)[C@@H](NC(=O)[C@@H](NC(=O)[C@@H]1CCCN1C(=O)[C@H](CCCNC(=N)N)N(C)C(=O)[C@@H](N)CCCNC(=N)N)[C@@H](C)O)[C@@H](C)O)C(=O)N[C@@H](C(=O)N1CCC[C@@H]1C(=O)N[C@H](CCCNC(=N)N)C(=O)N[C@H](CCCNC(=N)N)C(=O)O)[C@H](C)O` [No. 19, R-mR-PTTWHKP-G-pkhwttprr] (H-R[NMeR]PTTWHKPG[dP][dK][dH][dW][dT][dT][dP][dR][dR]-OH; N-terminus and C-terminus assumed), the “degradation resistance compared with the stand-alone PCPP11 and the FAM-PCPP11” value in series [3] was “superior degradation resistance”. Also, the degradation products observed result in series [3] (within 120 minutes of starting the test) was “no degradation products were observed”. The “inhibitory performance on nonspecific absorption into untargeted normal organs” value in series [4] is on record as “maintained satisfactorily”. Further, in series [4] (FIG. 12B), the “absorption into pancreatic malignant tumors relative to the Ld peptide” value is “approximately 1.4 fold”. Take “R-mR-PTTWHKP-C(-[FLC])-RRPTTWHKP-G-RRPTTWHKP [NmL-Cys(-FLC)-LL]”: in series [2], the “fluorescence compared with FLC-PCPP11” value is “stronger fluorescence” and the “fluorescence detected in all” value is “particularly strong fluorescence”. As for “R-mR-PTTWHKP-C(-[FLC])-RRPTTWHKP [NmL-Cys(-FLC)-L]”, the “fluorescence compared with FLC-PCPP11” value in series [2] was “stronger fluorescence”. In the case of RRPTTWHKP, in series [1], the cleaved bond result was “arginine-arginine, 5 min”; the fragment found result was “RPTTWHKP and RRPTTWH and RPTTWH and TTWHKP and TTWH and TWH, 30 min and WH, 60 min”. Consider “RRPTTWHKP-G-RRPTTWHKP-G-RRPTTWHKP (RRPTTWHKPGRRPTTWHKPGRRPTTWHKP)”, for which, in series [1], the not cleaved entry was “no degradation products within 120 minutes; 100% at 120 min”. With `C[C@@H](O)[C@H](NC(=O)[C@@H](NC(=O)[C@@H]1CCCN1C(=O)[C@H](CCCNC(=N)N)NC(=O)[C@H](CCCNC(=N)N)NC(=O)CNC(=O)[C@@H]1CCCN1C(=O)[C@H](CCCCN)NC(=O)[C@H](Cc1c[nH]cn1)NC(=O)[C@H](Cc1c[nH]c2ccccc12)NC(=O)[C@@H](NC(=O)[C@@H](NC(=O)[C@@H]1CCCN1C(=O)[C@H](CCCNC(=N)N)NC(=O)[C@H](CCCNC(=N)N)NC(=O)CNC(=O)[C@@H]1CCCN1C(=O)[C@H](CCCCN)NC(=O)[C@H](Cc1c[nH]cn1)NC(=O)[C@H](Cc1c[nH]c2ccccc12)NC(=O)[C@@H](NC(=O)[C@@H](NC(=O)[C@@H]1CCCN1C(=O)[C@H](CCCNC(=N)N)NC(=O)[C@H](CCCNC(=N)N)NC(=O)c1ccc2c(c1)C(=O)OC21c2ccc(O)cc2Oc2cc(O)ccc21)[C@@H](C)O)[C@@H](C)O)[C@@H](C)O)[C@@H](C)O)[C@@H](C)O)C(=O)N[C@@H](Cc1c[nH]c2ccccc12)C(=O)N[C@@H](Cc1c[nH]cn1)C(=O)N[C@@H](CCCCN)C(=O)N1CCC[C@H]1C(=O)O` [FAM-LLL] (5FAM-RRPTTWHKPGRRPTTWHKPGRRPTTWHKP-OH; C-terminus assumed), the “inhibitory performance on nonspecific absorption into untargeted normal organs” value in series [4] was “satisfactorily maintained”. Besides, in series [4] (FIG. 11), the “absorption into pancreatic malignant tumors compared with the conventional PCPP11” value was “approximately 6 fold”.

On to “RPTTWHKP-G-RRPTTWHKP-C(-[FLC])-RRPTTWHKP (RPTTWHKPGRRPTTWHKPC(fluorescein)RRPTTWHKP) [L(-R)L-Cys(-FLC)-L]”, for which, in series [2], the “fluorescence compared with FLC-PCPP11” value is reported as “stronger fluorescence” and the “fluorescence detected in all” value is recorded as “particularly strong fluorescence”.

Turning to “RPTTWHKP-C(-[FLC])-RRPTTWHKP-C(-[FLC])-RRPTTWHKP [L(-R)-Cys(-FLC)-L-Cys(-FLC)-L]”, in series [2], the “fluorescence compared with FLC-PCPP11” value is reported as “stronger fluorescence” and the “fluorescence detected in all” value is reported as “particularly strong fluorescence”. For the compound “[FLC]-R-mR-PTTWHKP-G-RRPTTWHKP [FLC-NmLL]”, in series [2], the “fluorescence compared with FLC-PCPP11” value is recorded as “stronger fluorescence”.
